Data: US12252524B2, “GIP/GLP1 co-agonist compounds” (Eli Lilly and Company, priority 2018, dated 2025)
Numbered stars: 1 amine (or outer) side, 2 acyl side, 3 side chain; on linkers, the order of the positions; unused ones are H or OH. Square brackets hold non-standard residues; d marks the D form. Side chains are listed from the residue outwards. Peptide text beside a SMILES is read from it. * marks the point of attachment. C20 diacid = O=C(O)CCCCCCCCCCCCCCCCCCC(=O)*; γGlu = O=C(O)[C@H](CCC(=O)[*:2])N[*:1]; αMeL = CC(C)C[C@](C)(N)C(=O)O; AEEA = NCCOCCOCC(=O)O; Aib = CC(C)(N)C(=O)O

Assays:
human Gcg receptor = molecular target: T1, human Gcg receptor (Homo sapiens, UniProt P47871); test: [125I]-Glucagon binding (SPA), human Gcg receptor; details: read-out: hGLcgR Ki, nM (SEM, n)
T1 construct: expressed in transfected cells; crude membranes
How it was run: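 Scintillation counts are taken after membranes and WGA beads incubate and settle for 12 hours at room temperature. Buffer is 25 mM HEPES, pH 7.4, with CaCl2, MgCl2, bacitracin and Tween-20. Ki values, from four-parameter IC50 fits, are geometric means over independent days.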

human GIP receptor = molecular target: T2, human GIP receptor (Homo sapiens, UniProt P48546); test: [125I]-GIP binding (SPA), human GIP receptor; details: read-out: hGIPR Ki, nM (SEM, n)
T2 construct: expressed in transfected cells; crude membranes
T2 sequence (P48546 22-466): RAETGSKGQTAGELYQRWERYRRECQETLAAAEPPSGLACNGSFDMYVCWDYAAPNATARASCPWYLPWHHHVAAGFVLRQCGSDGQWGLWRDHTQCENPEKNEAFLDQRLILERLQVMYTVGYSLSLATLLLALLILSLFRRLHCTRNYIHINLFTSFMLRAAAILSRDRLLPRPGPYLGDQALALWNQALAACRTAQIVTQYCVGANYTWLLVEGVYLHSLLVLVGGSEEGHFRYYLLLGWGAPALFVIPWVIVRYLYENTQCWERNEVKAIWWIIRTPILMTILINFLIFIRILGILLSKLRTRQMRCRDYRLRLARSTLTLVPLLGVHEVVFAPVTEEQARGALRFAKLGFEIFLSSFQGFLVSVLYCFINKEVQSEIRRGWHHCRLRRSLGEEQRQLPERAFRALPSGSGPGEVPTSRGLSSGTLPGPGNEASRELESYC

human GLP-1R = human GLP-1R (Homo sapiens, UniProt P43220); test: [125I]-GLP-1 binding (SPA), human GLP-1 receptor; parameters: expressed in transfected cells; crude membranes; details: read-out: hGLP1R Ki, (nM) (SEM, n)
How it was run: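 Assay buffer: HEPES 25 mM, pH 7.4, CaCl2 2.5 mM, MgCl2 1 mM, with EDTA-free protease inhibitors. Receptor came from crude cell membranes prepared by homogenization and centrifugation at 4° C. IC50s came from four-parameter fits (maximum, minimum, IC50, Hill slope) and were expressed as Ki geometric means with SEM.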

[1] = molecular target: human GLP-1 receptor (GLP-1R) (Homo sapiens, UniProt P43220); test: cAMP pharmacological functional assay in presence of casein, hGLP-1R; type: cell-based; details: HEK293 cells expressing hGLP-1R, 0.1% Casein, geometric mean; read-out: hGLP1R cAMP Rel EC50 nM (SEM, n)
[2] = molecular target: T3, gastric inhibitory peptide receptor (GIPR) (Homo sapiens, UniProt P48546); test: cAMP pharmacological functional assay in presence of casein, hGIPR; type: cell-based; details: HEK293 cells expressing hGIPR, 0.1% Casein, geometric mean; read-out: hGIPR cAMP Rel EC50 nM (SEM, n)
T3 sequence (P48546 22-466): T2 sequence (P48546 22-466)

Sequence of human GLP-1R (P43220 24-463): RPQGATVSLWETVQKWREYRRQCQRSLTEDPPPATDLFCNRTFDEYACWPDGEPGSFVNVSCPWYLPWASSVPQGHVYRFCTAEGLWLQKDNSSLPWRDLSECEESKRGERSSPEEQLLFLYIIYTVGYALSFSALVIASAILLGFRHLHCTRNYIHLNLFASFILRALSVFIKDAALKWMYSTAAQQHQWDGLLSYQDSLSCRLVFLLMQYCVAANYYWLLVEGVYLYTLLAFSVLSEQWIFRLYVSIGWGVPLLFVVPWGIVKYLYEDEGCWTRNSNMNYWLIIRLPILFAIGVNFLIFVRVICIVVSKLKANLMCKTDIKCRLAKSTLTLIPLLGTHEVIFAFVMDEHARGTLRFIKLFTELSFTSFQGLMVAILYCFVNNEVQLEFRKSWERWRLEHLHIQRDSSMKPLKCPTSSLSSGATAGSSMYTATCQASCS
Sequence of human GLP-1 receptor (GLP-1R) (P43220 24-463): as above
T1 sequence (P47871 26-477): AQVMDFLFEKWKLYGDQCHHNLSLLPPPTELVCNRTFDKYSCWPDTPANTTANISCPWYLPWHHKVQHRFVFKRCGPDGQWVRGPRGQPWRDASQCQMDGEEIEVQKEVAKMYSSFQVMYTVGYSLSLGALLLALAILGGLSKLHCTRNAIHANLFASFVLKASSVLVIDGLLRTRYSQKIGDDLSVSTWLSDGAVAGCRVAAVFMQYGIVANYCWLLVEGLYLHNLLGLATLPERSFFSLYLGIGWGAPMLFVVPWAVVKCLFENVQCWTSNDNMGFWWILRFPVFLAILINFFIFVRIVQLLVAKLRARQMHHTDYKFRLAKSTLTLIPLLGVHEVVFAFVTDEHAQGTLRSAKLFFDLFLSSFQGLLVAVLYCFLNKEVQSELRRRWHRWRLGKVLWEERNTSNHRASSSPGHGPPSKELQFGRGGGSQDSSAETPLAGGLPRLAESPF

Structure (SMILES) | Ki (human Gcg receptor) | Ki (human GIP receptor) | Ki (human GLP-1R) | EC50 [1] | EC50 [2]
CC[C@H](C)[C@H](NC(=O)[C@H](CC(C)C)NC(=O)[C@H](Cc1ccc(O)cc1)NC(=O)[C@H](CCC(=O)O)NC(=O)[C@@H](NC(=O)[C@H](Cc1ccccc1)NC(=O)[C@H](C)NC(=O)C(C)(C)NC(=O)[C@H](CCC(N)=O)NC(=O)[C@H](C)NC(=O)[C@H](CCCCNC(=O)COCCOCCNC(=O)COCCOCCNC(=O)CC[C@H](NC(=O)CCCCCCCCCCCCCCCCCCC(=O)O)C(=O)O)NC(=O)[C@H](CO)NC(=O)[C@H](CC(=O)O)NC(=O)[C@H](CC(C)C)NC(=O)[C@](C)(CC(C)C)NC(=O)[C@@H](NC(=O)[C@H](CO)NC(=O)[C@H](Cc1ccc(O)cc1)NC(=O)[C@H](CC(=O)O)NC(=O)[C@H](CO)NC(=O)[C@@H](NC(=O)[C@H](Cc1ccccc1)NC(=O)[C@@H](NC(=O)CNC(=O)[C@H](CCC(=O)O)NC(=O)C(C)(C)NC(=O)[C@@H](N)Cc1ccc(O)cc1)[C@@H](C)O)[C@@H](C)O)[C@@H](C)CC)[C@@H](C)CC)C(=O)N[C@@H](CCC(=O)O)C(=O)NCC(=O)NCC(=O)N1CCC[C@H]1C(=O)N[C@@H](CO)C(=O)N[C@@H](CO)C(=O)NCC(=O)N[C@@H](C)C(=O)N1CCC[C@H]1C(=O)N1CCC[C@H]1C(=O)N1CCC[C@H]1C(=O)N[C@@H](CO)C(N)=O [Example 52] (H-Y[Aib]EGTFTSDYSI[αMeL]LDSK([AEEA-AEEA-γGlu-C20 diacid])AQ[Aib]AFIEYLIEGGPSSGAPPPS-NH2) | > 1100 nM | 0.0342 nM | 5.81 nM | 0.132 nM | 0.0997 nM
CC[C@H](C)[C@H](NC(=O)[C@H](CC(C)C)NC(=O)[C@H](Cc1ccc(O)cc1)NC(=O)[C@H](CCC(=O)O)NC(=O)[C@@H](NC(=O)[C@H](Cc1ccccc1)NC(=O)[C@H](C)NC(=O)C(C)(C)NC(=O)[C@H](CCC(N)=O)NC(=O)[C@H](C)NC(=O)[C@H](CCCCNC(=O)COCCOCCNC(=O)COCCOCCNC(=O)CC[C@H](NC(=O)CCCCCCCCCCCCCCCCCCC(=O)O)C(=O)O)NC(=O)[C@H](CCCCN)NC(=O)[C@H](CC(=O)O)NC(=O)[C@H](CC(C)C)NC(=O)[C@](C)(CC(C)C)NC(=O)[C@@H](NC(=O)[C@H](CO)NC(=O)[C@H](Cc1ccc(O)cc1)NC(=O)[C@H](CC(=O)O)NC(=O)[C@H](CO)NC(=O)[C@@H](NC(=O)[C@H](Cc1ccccc1)NC(=O)[C@@H](NC(=O)CNC(=O)[C@H](CCC(=O)O)NC(=O)C(C)(C)NC(=O)[C@@H](N)Cc1c[nH]cn1)[C@@H](C)O)[C@@H](C)O)[C@@H](C)CC)[C@@H](C)CC)C(=O)N[C@@H](CCC(=O)O)C(=O)NCC(=O)NCC(=O)N1CCC[C@H]1C(=O)N[C@@H](CO)C(=O)N[C@@H](CO)C(=O)NCC(=O)N[C@@H](C)C(=O)N1CCC[C@H]1C(=O)N1CCC[C@H]1C(=O)N1CCC[C@H]1C(=O)N[C@@H](CO)C(N)=O [Example 53] (H-H[Aib]EGTFTSDYSI[αMeL]LDKK([AEEA-AEEA-γGlu-C20 diacid])AQ[Aib]AFIEYLIEGGPSSGAPPPS-NH2; N-terminus assumed) | 216 nM | 0.188 nM | 1.23 nM | 0.0339 nM | 0.628 nM
CC[C@H](C)[C@H](NC(=O)[C@H](CC(C)C)NC(=O)[C@H](Cc1ccc(O)cc1)NC(=O)[C@H](CCC(=O)O)NC(=O)[C@@H](NC(=O)[C@H](Cc1ccccc1)NC(=O)[C@H](C)NC(=O)[C@H](Cc1c[nH]cn1)NC(=O)[C@H](CCC(N)=O)NC(=O)[C@H](C)NC(=O)[C@H](CCCCNC(=O)COCCOCCNC(=O)COCCOCCNC(=O)CC[C@H](NC(=O)CCCCCCCCCCCCCCCCCCC(=O)O)C(=O)O)NC(=O)[C@H](CCCCN)NC(=O)[C@H](CC(=O)O)NC(=O)[C@H](CC(C)C)NC(=O)[C@](C)(CC(C)C)NC(=O)[C@@H](NC(=O)[C@H](CO)NC(=O)[C@H](Cc1ccc(O)cc1)NC(=O)[C@H](CC(=O)O)NC(=O)[C@H](CO)NC(=O)[C@@H](NC(=O)[C@H](Cc1ccccc1)NC(=O)[C@@H](NC(=O)CNC(=O)[C@H](CCC(=O)O)NC(=O)C(C)(C)NC(=O)[C@@H](N)Cc1c[nH]cn1)[C@@H](C)O)[C@@H](C)O)[C@@H](C)CC)[C@@H](C)CC)C(=O)N[C@@H](CCC(=O)O)C(=O)NCC(=O)NCC(=O)N1CCC[C@H]1C(=O)N[C@@H](CO)C(=O)N[C@@H](CO)C(=O)NCC(=O)N[C@@H](C)C(=O)N1CCC[C@H]1C(=O)N1CCC[C@H]1C(=O)N1CCC[C@H]1C(=O)N[C@@H](CO)C(N)=O [Example 54] (H-H[Aib]EGTFTSDYSI[αMeL]LDKK([AEEA-AEEA-γGlu-C20 diacid])AQHAFIEYLIEGGPSSGAPPPS-NH2) | 333 nM | 0.965 nM | 1.66 nM | 0.0242 nM | 1.57 nM
CC[C@H](C)[C@H](NC(=O)[C@H](CC(C)C)NC(=O)[C@H](Cc1ccc(O)cc1)NC(=O)[C@H](CCC(=O)O)NC(=O)[C@@H](NC(=O)[C@H](Cc1ccccc1)NC(=O)[C@H](C)NC(=O)[C@H](Cc1c[nH]cn1)NC(=O)[C@H](CCC(N)=O)NC(=O)[C@H](C)NC(=O)[C@H](CCCCNC(=O)COCCOCCNC(=O)COCCOCCNC(=O)CC[C@H](NC(=O)CCCCCCCCCCCCCCCCCCC(=O)O)C(=O)O)NC(=O)[C@H](CCC(=O)O)NC(=O)[C@H](CC(=O)O)NC(=O)[C@H](CC(C)C)NC(=O)[C@](C)(CC(C)C)NC(=O)[C@@H](NC(=O)[C@H](CO)NC(=O)[C@H](Cc1ccc(O)cc1)NC(=O)[C@H](CC(=O)O)NC(=O)[C@H](CO)NC(=O)[C@@H](NC(=O)[C@H](Cc1ccccc1)NC(=O)[C@@H](NC(=O)CNC(=O)[C@H](CCC(=O)O)NC(=O)C(C)(C)NC(=O)[C@@H](N)Cc1c[nH]cn1)[C@@H](C)O)[C@@H](C)O)[C@@H](C)CC)[C@@H](C)CC)C(=O)N[C@@H](CCC(=O)O)C(=O)NCC(=O)NCC(=O)N1CCC[C@H]1C(=O)N[C@@H](CO)C(=O)N[C@@H](CO)C(=O)NCC(=O)N[C@@H](C)C(=O)N1CCC[C@H]1C(=O)N1CCC[C@H]1C(=O)N1CCC[C@H]1C(=O)N[C@@H](CO)C(N)=O [Example 55] (H-H[Aib]EGTFTSDYSI[αMeL]LDEK([AEEA-AEEA-γGlu-C20 diacid])AQHAFIEYLIEGGPSSGAPPPS-NH2) | > 1100 nM | 6.24 nM | 7.29 nM | 0.0286 nM | 5.45 nM
CC[C@H](C)[C@H](NC(=O)[C@H](CC(C)C)NC(=O)[C@H](Cc1ccc(O)cc1)NC(=O)[C@H](CCC(=O)O)NC(=O)[C@@H](NC(=O)[C@H](Cc1ccccc1)NC(=O)[C@H](C)NC(=O)[C@H](Cc1c[nH]cn1)NC(=O)[C@H](CCC(N)=O)NC(=O)[C@H](C)NC(=O)[C@H](CCCCNC(=O)COCCOCCNC(=O)COCCOCCNC(=O)CC[C@H](NC(=O)CCCCCCCCCCCCCCCCCCC(=O)O)C(=O)O)NC(=O)[C@H](CCC(=O)O)NC(=O)[C@H](CC(=O)O)NC(=O)[C@H](CC(C)C)NC(=O)[C@](C)(CC(C)C)NC(=O)[C@@H](NC(=O)[C@H](CO)NC(=O)[C@H](Cc1ccc(O)cc1)NC(=O)[C@H](CC(=O)O)NC(=O)[C@H](CO)NC(=O)[C@@H](NC(=O)[C@H](Cc1ccccc1)NC(=O)[C@@H](NC(=O)CNC(=O)[C@H](CCC(=O)O)NC(=O)C(C)(C)NC(=O)[C@@H](N)Cc1ccc(O)cc1)[C@@H](C)O)[C@@H](C)O)[C@@H](C)CC)[C@@H](C)CC)C(=O)N[C@@H](CCC(=O)O)C(=O)NCC(=O)NCC(=O)N1CCC[C@H]1C(=O)N[C@@H](CO)C(=O)N[C@@H](CO)C(=O)NCC(=O)N[C@@H](C)C(=O)N1CCC[C@H]1C(=O)N1CCC[C@H]1C(=O)N1CCC[C@H]1C(=O)N[C@@H](CO)C(N)=O [Example 56] (H-Y[Aib]EGTFTSDYSI[αMeL]LDEK([AEEA-AEEA-γGlu-C20 diacid])AQHAFIEYLIEGGPSSGAPPPS-NH2) | > 1060 nM | 0.148 nM | 10.3 nM | 0.136 nM | 0.167 nM
